Like-named read-outs stand apart in the source and are kept apart here.
Assays:
primary hfRPE culture [1] = test: Cytotoxicity by LDH release; format: cell-based, human; conditions: 24 hours exposure
Procedure: (§1) TEER and cell death were measured [Ref 51; incorporated by reference in its entirety]. For cell death assays, maximum possible LDH release per Transwell was measured immediately after 2 μL of the final experimental supernate was taken. The Transwell and supernate was then treated with 0.2% Triton X-100 for 15 minutes at 37° C. followed by collection of an additional 2 μL of supernate. Each experimental LDH release value was first normalized to total LDH release from the vehicle condition. Additionally, all TEER and LDH release measurements were normalized to the vehicle group at the zero-hour timepoint.
To evaluate the safety of D4476 and FLBZ, trans-epithelial electrical resistance (TEER) was measured, a measure of tight-junction integrity, in RPE cultures after prolonged exposure to each compound. As well-formed tight-junctions require myriad cell processes to be optimally coordinated, assessing TEER provides an easily measurable, ongoing, and noninvasive marker for general RPE cell health [Ref. 45; incorporated by reference in its entirety]. […] Lactate dehydrogenase (LDH) release, a combined marker of necrotic and late-stage apoptotic cell death [Refs. 47,48; incorporated by reference in their entireties], was reduced compared to vehicle for all four verified RPE autophagy inducers (FIG. 3b). […]

[2] = tested on: primary human fetal RPE (hfRPE) culture; test: Autophagy induction by LC3 lipidation (LC3-II/LC3-I ratio) on Western blot; format: cell-based; conditions: 24 hours exposure, vs vehicle (DMSO)
Procedure: (§2) Cell cultures were exposed to each putative autophagy inducer at a concentration indicated in Table 1 for 24 hours, lysed with 36 μL of SDS sample buffer with β-mercaptoethanol, with 15 μg of lysate loaded on a 4-15% gradient gel followed by transfer to a PVDF membrane. Blots were incubated with 1:1000 of LC3A/B antibody (Cell Signaling Technology; #4108s, RRID:AB_2137703) overnight. Quantifying LC3-II/LC3-I ratio is a well-accepted method for det 306 ermining autophagy induction [Ref. 44; incorporated by reference in its entirety], and this ratio was quantified in a non-saturated, linear range using the Azure c500 Imaging System (Azure Biosystems, Dublin, CA, USA) and a combination of AzureSpot and ImageJ software. The data in FIG. 2A are not normalized, whereas the data in FIGS. 2b and 1c are normalized to the average combined value of the vehicle and drug groups within each experimental repeat. The extreme pigmentation of human fetal cultures, combined with the destruction of the LC3 epitope with melanin bleaching protocols, makes detection of LC3 by microscopy in hfRPE difficult. A range of LC3 staining and puncta quantification protocols specifically adapted to pigmented hfRPE culture were employed [Ref. 43; incorporated by reference in its entirety]. At least five fields of view were randomly chosen and analyzed per experimental replicate for LC3 immunocytochemistry.
To test for autophagy induction, lipidation of the core autophagy protein LC3 was measured by mobility shift on Western blots 24 hours after each compound was added to hfRPE cultures [Ref. 44; incorporated by reference in its entirety]. […] Of the more than 30 putative autophagy inducers tested, only five produced an increased ratio of LC3-II/LC3-I, consistent with increased autophagy (FIG. 2a).
Autophagy induction was measured by LC3-II/LC3-I Ratios on Western Blot (standard method for autophagy induction) (FIG. 18A-C). Drugs were applied to primary human RPE culture for 24 hours.

primary hfRPE culture [3] = test: Trans-epithelial electrical resistance (TEER), tight-junction integrity; format: cell-based
Procedure: as §1
To evaluate the safety of D4476 and FLBZ, trans-epithelial electrical resistance (TEER) was measured, a measure of tight-junction integrity, in RPE cultures after prolonged exposure to each compound. As well-formed tight-junctions require myriad cell processes to be optimally coordinated, assessing TEER provides an easily measurable, ongoing, and noninvasive marker for general RPE cell health [Ref. 45; incorporated by reference in its entirety]. […] Lactate dehydrogenase (LDH) release, a combined marker of necrotic and late-stage apoptotic cell death [Refs. 47,48; incorporated by reference in their entireties], was reduced compared to vehicle for all four verified RPE autophagy inducers (FIG. 3b). Exposure of RPE cultures to the oxidant tert-butyl hydroperoxide confirmed the ability of the assay to detect cell death (FIG. 10).
Transepithelial Electrical Resistance (TEER) was tested (FIGS. 16 and 17). TEER is a sensitive measure of toxicity (lower the TEER, the more toxic the drug is). Drugs were added daily and measurements made daily for at least 4-8 days.

[4] = tested on: primary human fetal RPE (hfRPE) culture; test: Autophagy induction by LC3 puncta formation (immunocytochemistry); format: cell-based; conditions: 24 hours exposure
Procedure: as §2
Autophagy induction was confirmed by assaying the formation of LC3-positive puncta (autophagosomes) by immunocytochemistry [Ref. 44; incorporated by reference in its entirety]. Puncta formation was quantified in automated/unbiased fashion using a customized macro in the Fiji/ImageJ platform [Ref. 43; incorporated by reference in its entirety].
Autophagy induction was measured by LC3 puncta on immunocytochemistry (standard method for autophagy induction) (FIG. 19). Drugs applied to primary human RPE culture for 24 hours.

[5] = tested on: primary human fetal RPE (hfRPE) culture; test: Autophagy flux assay with NH4Cl lysosomal alkalinization; format: cell-based; conditions: inducer 22.5 hours, then 25 mM NH4Cl for final 1.5 hours
Procedure: Cultures were exposed to compounds or vehicle (DMSO) for 24 hours. […] (C) Autophagy flux assays. After application of inducers or vehicle (DMSO) for 22.5 hours, 25 mM of NH4Cl, a lysosomal alkalizing agent, or H2O were added for a final 1.5 hours to inhibit autophagy flux.
Increases in both LC3 lipidation and autophagosome formation could result from downstream blockade of autophagy at the lysosome.

primary hfRPE culture [6] = test: Outer segment (OS) phagocytosis efficiency (rhodopsin disappearance); conditions: bovine outer segments, pulse-only method
Procedure: (§3) Phagocytosis assays using bovine outer segments was performed using the “pulse-only” method [Ref 43; incorporated by reference in its entirety]. Values at the zero-hour timepoint were used for normalization.

RPE from mouse eyecups = test: Ex vivo mouse eyecup autophagy induction (LC3II/LC3I ratio); conditions: mouse RPE/choroid eyecup, 24 hours; Torin 1-5 uM, FLBZ 12-60 uM
Procedure: FIG. 14. Effect of autophagy positive control Torin on RPE from mouse eyecups (DMSO as control). […] Mouse eyes were enucleated, the anterior segment vitreous, and retina were removed, leaving an eyecup with RPE/choroid exposed. […] RPE/Choroid eyecup was treated with 1 uM Torin1 in our previously established RPE cell culture media for 24 hours. n=4.
FIG. 15. Effect of Flubendazole on RPE from Mouse Eyecups (DMSO as control). Conditions with and without ammonium chloride (NH4Cl) help establish high autophagy flux rates. If true autophagy flux is happening, the LC3II/LC3I ratio should increase further upon addition of NH4Cl, as is the case here. DMSO− and FLBZ−, n=6, FLBZ+ and DMSO+ n=5. Flubendazole tested at 60 uM, lysates collected after 24 hours. Induction did occur in eyecups.
Given the inconsistent results with detecting autophagy induction using intravitreal injection of the positive control, Torin, experiments were conducted to determine whether the lack of responsiveness to intravitreal injections was a drug access issue or whether it was a species or animal vs. culture difference. Additional experiments utilized freshly isolated mouse eyecups with the retina removed to determine whether Torin (and FLBZ) induce autophagy in this context. […] The use of ammonium chloride in these experiments blocks lysosomal degradation.

[7] = Solubility assays of DMSO stock mixed with PBS (simulating the vitreous); format: physicochemical; conditions: Torin 1 mM stock mixed 1:1 with PBS; flubendazole 3 mM stock
Procedure: Experiments were conducted during development of embodiments herein to establish a positive control for autophagy induction. The direct mTOR inhibitor Torin1 was selected over rapamycin/sirolimus as the positive control, based on the capacity of Torin1 to induce autophagy in primary culture more strongly and more consistently than rapamycin. The experimental set-up involved injecting one eye with Torin and the other eye with the DMSO vehicle. Autophagy induction was measured at 4 different concentrations of Torin (500 nm, 5 um, 50 um, 500 um) and at 5 different timepoints after injection (1 day, 3 days, 7 days, 14 days, 28 days). […] Nevertheless, the ability of intravitreal injections of FLBZ to induce autophagy in the RPE was assessed. In preparation for injecting FLBZ intravitreally into mice, solubility assays were performed and the maximum amount of FLBZ that can be injected without it crashing out of solution in the vitreous was determined. […] This helped inform maximal concentrations of flubendazole that could be injected intravitreally. Four different concentrations were injected, up to the maximum solubility of FLBZ, and autophagy induction was assayed over a timeframe ranging from 1 week to 4 weeks after injection.

primary hfRPE culture [8] = test: Undigestible autofluorescent material (UAM) accumulation, elimination and granule size after oxOS feedings; format: cell-based, human; conditions: fed daily with oxOS over a month; FLBZ 12 μM, Torin 1 μM; vs vehicle
primary hfRPE culture [9] = tested on: primary hfRPE culture
Procedure: as §3

RPE of mouse eye = test: Intravitreal injection in mouse eyes, autophagy by LC3II/LC3I ratio of lysates; format: in vivo; conditions: four concentrations up to 500 uM, multiple timepoints, DMSO in other eye
Procedure: Experiments were conducted during development of embodiments herein to assay for autophagy in the mouse eye. Experiments were conducted to measure autophagy by giving an intraperitoneal injection of leupeptin, followed by assaying for LC3 puncta in an RPE flatmount of a GFP-LC3 mouse. Background from GFP-LC3 debris deposited on the RPE when the retina was peeled off for the flat mount prevented signal detection. A biochemical assay was then employed for autophagy induction, measuring an increase in the lipidation of the autophagy core protein LC3 (lipidated LC3=LC3-II, unlipidated LC3=LC3-I, so higher LC3-II/LC3-I ratio indicates autophagy induction). Sufficient signal as obtained. […] Harvesting techniques were also optimized for collecting RPE from mouse eyes.
Experiments were conducted during development of embodiments herein to establish a positive control for autophagy induction. […] Autophagy induction was measured at 4 different concentrations of Torin (500 nm, 5 um, 50 um, 500 um) and at 5 different timepoints after injection (1 day, 3 days, 7 days, 14 days, 28 days). […] Nevertheless, the ability of intravitreal injections of FLBZ to induce autophagy in the RPE was assessed. In preparation for injecting FLBZ intravitreally into mice, solubility assays were performed and the maximum amount of FLBZ that can be injected without it crashing out of solution in the vitreous was determined. […]

[10] = prolonged exposure, drug or vehicle (DMSO) replaced daily

Compound	LC3-II/LC3-I ratio (autophagy induction) [2]	TEER (toxicity), Example 3 (primary hfRPE culture [3])	LC3 puncta formation (autophagy induction) [4]	Autophagy flux: LC3-II/LC3-I ratio after NH4Cl [5]	other results
CC(C)(C)OO [tBHP, tert-butyl hydroperoxide]	–	–	–	–	LDH release after oxidant exposure (assay validation) (primary hfRPE culture [1]): marked increase in LDH release
CCCCc1oc2ccccc2c1C(=O)c1cc(I)c(OCCN(CC)CC)c(I)c1 [Amiodarone]	Induction of autophagy	–	–	–	–
CC(C)(Sc1ccc(CCN(CCCCC2CCCCC2)C(=O)NC2CCCCC2)cc1)C(=O)O [GW7647]	Induction of autophagy	–	–	–	–
N#CC1(c2ccc(NC(=O)c3cccnc3NCc3ccncc3)cc2)CCCC1 [apatinib]	evidence for autophagy induction	No toxicity is observed	confirming autophagy induction	–	–
COc1cc2c(Oc3ccc4[nH]c(C)cc4c3F)ccnc2cc1OCC1(N)CC1 [anlotinib]	evidence for autophagy induction	No toxicity is observed	confirming autophagy induction	–	–
NC(=O)c1ccc(-c2nc(-c3ccc4c(c3)OCCO4)c(-c3ccccn3)[nH]2)cc1 [D4476]	Induction of autophagy	–	induced autophagy	induces autophagy flux	TEER (tight-junction integrity) (primary hfRPE culture [3]; [10]): more modest impact; OS phagocytosis efficiency / OS degradative capacity (primary hfRPE culture [6]): no effect on OS degradative capacity
CCC(=O)N1CCN(c2ccc(-n3c(=O)ccc4cnc5ccc(-c6cnc7ccccc7c6)cc5c43)cc2C(F)(F)F)CC1 [Torin, Torin1]	upregulate autophagy	–	induced autophagy	induces autophagy flux	TEER (tight-junction integrity) (primary hfRPE culture [3]): dramatically reduced TEER; Autophagy induction in eyecups (LC3II/LC3I ratio) (RPE from mouse eyecups): induces autophagy well; Precipitation of DMSO stock solution when mixed with PBS [7]: did not crash out; UAM accumulation, drug fed concurrently with oxOS (primary hfRPE culture [8]): more UAM accumulation; OS phagocytosis efficiency / OS degradative capacity (primary hfRPE culture [9]): reduces phagocytosis efficiency; Autophagy induction in RPE after intravitreal injection (LC3II/LC3I ratio) (RPE of mouse eye): No concentration or time after injection provided convincing evidence for replicable autophagy induction
CCN(CC)CCNC(=O)c1c(C)[nH]c(/C=C2\C(=O)Nc3ccc(F)cc32)c1C [sunitinib]	–	No toxicity is observed	–	–	–
O=C(NCC1(N2CCN(c3ccccc3)CC2)CCOCC1)c1cccnc1Sc1ccccc1 [JNJ, JNJ-47965567]	Induction of autophagy	–	–	–	–
O=C1NC(=O)/C(=C/c2ccc3nccc(-c4ccncc4)c3c2)S1 [GSK, GSK 1059615]	upregulate autophagy	–	induced autophagy	induces autophagy flux	TEER (tight-junction integrity) (primary hfRPE culture [3]; [10]): dramatically reduced TEER; OS phagocytosis efficiency / OS degradative capacity (primary hfRPE culture [9]): reduces phagocytosis efficiency
